Molecules are shown by their SMILES.

The experiment has as its system Nilaparvata lugens (Brown Plant Hopper). The experiment is described as follows: Nilaparvata lugens (Brown Plant Hopper) rice seedling spray test, mortality. The settings on record: N3 nymphs, mortality 6-12 days after treatment. The experiment is classed as in vivo. Here is the method:
Nilaparvata lugens (Brown Plant Hopper) Rice seedlings are treated with the diluted test solutions in a spray chamber. After drying, plants are infested with 20 N3 nymphs (2 replicates). 6-12 days after the treatment samples are checked for mortality

With `Cc1cc(C2=NOC(c3cc(Cl)cc(Cl)c3)(C(F)(F)F)C2)ccc1C(=O)NC1CON(C)C1=O` (mixture of isomers) [Compound A1], the Control/% (rate 12.5 ppm) was found to be 93%, the Control/% (rate 25 ppm) was 93% and the Control/% (rate 50 ppm) worked out at 98%.
In the case of `Cc1cc(C2=NOC(c3cc(Cl)cc(Cl)c3)(C(F)(F)F)C2)ccc1C(=O)NC1CON(CC(F)(F)F)C1=O` (mixture of isomers) [Compound A2], the Control/% is 80% (rate 12.5 ppm), 98% (rate 25 ppm) and 99% (rate 50 ppm).
On the same counts, the results for `CCN1OCC(NC(=O)c2ccc(C3=NOC(c4cc(Cl)cc(Cl)c4)(C(F)(F)F)C3)cc2C)C1=O` (mixture of isomers) [Compound A4] are 88%, 93% and 100%.
On the same counts, the results for `Cc1cc(C2=NOC(c3cc(Cl)cc(Cl)c3)(C(F)(F)F)C2)ccc1C(=O)NC1CON(C)C1=O` (mixture of isomers) [Compound A5] are 0%, 65% and 98%.
On the same counts, the results for `CCN1OCC(NC(=O)c2ccc(C3=NOC(c4cc(Cl)c(Cl)c(Cl)c4)(C(F)(F)F)C3)cc2C)C1=O` (mixture of isomers) [Compound A6] are 100%, 100% and 100%.
In turn, `CCN1OCC(NC(=O)c2ccc(C3=NOC(c4cc(Cl)c(Br)c(Cl)c4)(C(F)(F)F)C3)cc2C)C1=O` (mixture of isomers) [Compound A7] came in with a Control/% (rate 12.5 ppm) of 100%, a Control/% (rate 25 ppm) of 100% and a Control/% (rate 50 ppm) of 100%.
As to `CCN1OCC(NC(=O)c2ccc(C3=NOC(c4cc(Cl)c(F)c(Cl)c4)(C(F)(F)F)C3)cc2C)C1=O` (mixture of isomers) [Compound A8], the Control/% runs as follows: (rate 12.5 ppm) 100%; (rate 25 ppm) 100%; (rate 50 ppm) 100%.
Regarding `CCN1OCC(NC(=O)c2ccc(C3=NOC(c4cc(C(F)(F)F)c(Cl)c(C(F)(F)F)c4)(C(F)(F)F)C3)cc2C)C1=O` (mixture of isomers) [Compound A10], the Control/% is given as 100% (rate 12.5 ppm), 100% (rate 25 ppm) and 100% (rate 50 ppm).
Regarding `CCN1OCC(NC(=O)c2ccc(C3=NOC(c4cc(F)cc(Cl)c4)(C(F)(F)F)C3)cc2C)C1=O` (mixture of isomers) [Compound A11], the Control/% reads like this: (rate 12.5 ppm) 80%; (rate 25 ppm) 55%; (rate 50 ppm) 100%.
On the same counts, the results for `CCN1OCC(NC(=O)c2ccc(C3=NOC(c4cc(Cl)cc(Cl)c4)(C(F)(F)F)C3)cc2C)C1=O` (mixture of isomers) [Compound A18] are 100%, 100% and 100%.
Take `Cc1cc(C2=NOC(c3cc(Cl)cc(Cl)c3)(C(F)(F)F)C2)ccc1C(=O)NC1CON(CC(F)(F)F)C1=O` (mixture of isomers) [Compound A19]: the Control/% runs as follows: (rate 12.5 ppm) 100%; (rate 25 ppm) 100%; (rate 50 ppm) 100%.
With `Cc1cc(C2=NOC(c3cc(Cl)cc(Cl)c3)(C(F)(F)F)C2)ccc1C(=O)NC1CON(CC(F)F)C1=O` (mixture of isomers) [Compound A20], the Control/% worked out at 100% (rate 12.5 ppm), 100% (rate 25 ppm) and 100% (rate 50 ppm).
In the case of `CCN1OCC(NC(=O)c2ccc(C3=NOC(c4cc(Cl)c(F)c(Cl)c4)(C(F)(F)F)C3)cc2C)C1=O` (mixture of isomers) [Compound A21], where the note is “rate 50 ppm”, the Control/% turned out to be 100%.
As for `Cc1cc(C2=NOC(c3cc(Cl)cc(Cl)c3)(C(F)(F)F)C2)ccc1C(=O)NC1CON(C)C1=O` (mixture of isomers) [Compound A22], the Control/% was found to be 98% (rate 12.5 ppm), 100% (rate 25 ppm) and 100% (rate 50 ppm).
On to `Cc1cc(C2=NOC(c3cc(Cl)c(Cl)c(Cl)c3)(C(F)(F)F)C2)ccc1C(=O)NC1CON(CC(F)(F)F)C1=O` (mixture of isomers) [Compound A23], for which the Control/% (rate 12.5 ppm) is on record as 90%, the Control/% (rate 25 ppm) is 98% and the Control/% (rate 50 ppm) is 100%.
On the same counts, the results for `CCN1OCC(NC(=O)c2ccc(C3=NCC(c4cc(Cl)cc(Cl)c4)(C(F)(F)F)C3)cc2C)C1=O` (mixture of isomers) [Compound B1] are 0%, 78% and 90%.
In the same order, the values of `CCN1OCC(NC(=O)c2ccc(C3=COC(c4cc(Cl)cc(Cl)c4)(C(F)(F)F)C3)cc2C)C1=O` (mixture of isomers) [Compound C1] are 0%, 15% and 95%.
In the case of `Cc1cc(C2=NO[C@@](c3cc(Cl)cc(Cl)c3)(C(F)(F)F)C2)ccc1C(=O)N[C@@H]1CON(CC(F)F)C1=O` [Compound A12], the Control/% came out at 100% (rate 12.5 ppm), 100% (rate 25 ppm) and 100% (rate 50 ppm).
Compound `Cc1cc(C2=NO[C@@](c3cc(Cl)c(Cl)c(Cl)c3)(C(F)(F)F)C2)ccc1C(=O)N[C@@H]1CON(CC(F)(F)F)C1=O` [Compound A13] had a Control/% (rate 12.5 ppm) of 75%, a Control/% (rate 25 ppm) of 100% and a Control/% (rate 50 ppm) of 98%.
On the same counts, the results for `Cc1cc(C2=NO[C@@](c3cc(Cl)c(F)c(Cl)c3)(C(F)(F)F)C2)ccc1C(=O)N[C@@H]1CON(CC(F)(F)F)C1=O` [Compound A14] are 100%, 100% and 100%.
On the same counts, the results for `CCN1OC[C@@H](NC(=O)c2ccc(C3=NO[C@@](c4cc(Cl)cc(C(F)(F)F)c4)(C(F)(F)F)C3)cc2C)C1=O` [Compound A15] are 99%, 99% and 100%.
In the same order, the values of `CCN1OC[C@@H](NC(=O)c2ccc(C3=NO[C@@](c4cc(Cl)cc(Br)c4)(C(F)(F)F)C3)cc2C)C1=O` [Compound A16] are 95%, 97% and 98%.
Turning to `Cc1cc(C2=NO[C@@](c3cc(Cl)cc(Br)c3)(C(F)(F)F)C2)ccc1C(=O)N[C@@H]1CON(CC(F)(F)F)C1=O` [Compound A17], the Control/% runs as follows: (rate 12.5 ppm) 100%; (rate 25 ppm) 100%; (rate 50 ppm) 100%.
Consider `CCN1OC[C@@H](NC(=O)c2ccc(C3=NO[C@@](c4cc(Cl)c(F)c(Cl)c4)(C(F)(F)F)C3)cc2C)C1=O` [Compound A24], for which the Control/% turned out to be 75% (rate 12.5 ppm), 85% (rate 25 ppm) and 98% (rate 50 ppm).
On the same counts, the results for `CCN1OC[C@@H](NC(=O)c2ccc(C3=NO[C@@](c4cc(Cl)c(F)c(Cl)c4)(C(F)(F)F)C3)cc2Cl)C1=O` [Compound A25] are 100%, 100% and 100%.
On to `CCN1OC[C@@H](NC(=O)c2ccc(C3=NO[C@@](c4cc(Cl)cc(C(F)(F)F)c4)(C(F)(F)F)C3)c3ccccc23)C1=O` [Compound A26], for which the Control/% stood at 83% (rate 12.5 ppm), 100% (rate 25 ppm) and 100% (rate 50 ppm).
On to `CCN1OC[C@@H](NC(=O)c2ccc(C3=NO[C@@](c4cc(Cl)cc(Cl)c4)(C(F)(F)F)C3)cc2C(F)(F)F)C1=O` [Compound A28], for which the Control/% came out at 0% (rate 12.5 ppm), 50% (rate 25 ppm) and 95% (rate 50 ppm).
On the same counts, the results for `CCN1OC[C@@H](NC(=O)c2ccc(C3=NO[C@@](c4cc(Cl)c(Cl)c(Cl)c4)(C(F)(F)F)C3)cc2C(F)(F)F)C1=O` [Compound A29] are 55%, 88% and 100%.
On the same counts, the results for `CCN1OC[C@@H](NC(=O)c2ccc(C3=NO[C@@](c4cccc(C(F)(F)F)c4)(C(F)(F)F)C3)cc2C)C1=O` [Compound A30] are 93%, 100% and 98%.
In the same order, the values of `CCN1OC[C@@H](NC(=O)c2ccc(C3=NO[C@@](c4cc(Cl)c(Cl)c(Cl)c4)(C(F)(F)F)C3)cc2Br)C1=O` [Compound A33] are 80%, 98% and 98%.
Turning to `CCN1OC[C@@H](NC(=O)c2ccc(C3=NO[C@@](c4cc(Cl)cc(Cl)c4)(C(F)(F)F)C3)cc2Br)C1=O` [Compound A34], the Control/% (rate 12.5 ppm) was determined as 98%, the Control/% (rate 25 ppm) is 100% and the Control/% (rate 50 ppm) is on record as 100%.
Turning to `CCN1OC[C@@H](NC(=O)c2ccc(C3=NO[C@@](c4cc(Cl)c(Cl)c(Cl)c4)(C(F)(F)F)C3)cc2C)C1=O` [Compound A35], the Control/% (rate 12.5 ppm) is 93%, the Control/% (rate 25 ppm) came out at 100% and the Control/% (rate 50 ppm) worked out at 98%.
With `CCN1OCC(NC(=O)c2ccc(C3=NCC(c4cc(Cl)cc(Cl)c4)(C(F)(F)F)C3)cc2C)C1=O` (stereo not shown) [Compound B2], the Control/% is, setting by setting: (rate 12.5 ppm) 15%; (rate 25 ppm) 70%; (rate 50 ppm) 88%.
Turning to `Cc1cc(C2=NCC(c3cc(Cl)cc(Cl)c3)(C(F)(F)F)C2)ccc1C(=O)NC1CON(CC(F)(F)F)C1=O` (stereo not shown) [Compound B3], the Control/% is on record as 100% (rate 12.5 ppm), 100% (rate 25 ppm) and 100% (rate 50 ppm).

(Values after patent US9474279B2, “Methods of controlling insects” (Syngenta Participations AG, priority 2012, dated 2016).)
